# Data reported in patent US8822174B1, “Sterilization indicator for oxidative sterilants” (priority 2013, dated 2014).
# Values joined by “and” are separate entries in the source; they are usually repeats but may differ in a detail not shown here. Equal entries are not always repeated.
# Test system: Geobacillus stearothermophilus spores
# Type: cell-based
# Experimental: Geobacillus stearothermophilus spores are resuspended in potassium ferricyanide concentrations ranging from 0.5 μg/ml to 200 mg/ml in samples having a spore concentration of 1E8 per ml (1×10^8 spores per milliliter). SCBI vials are inoculated with 20 μl (≈2 million spores) of each of the sample suspensions and air dried at least overnight. The SCBIs are then capped and run in a VHP BIER vessel for the times shown in Table 1 below using a 0.8 g injection of 59% hydrogen peroxide.
# Geobacillus stearothermophilus spores are resuspended in Prussian blue concentrations ranging from 0.5 μg/ml to 123 mg/ml at a spore concentration of 1E8 per ml. SCBI vials are inoculated with 20 μl (≈2 million spores) of the appropriate suspension and air dried at least overnight. The SCBIs are then capped and run in a VHF) BIER vessel for the times listed below using a 0.8 g injection of 59% hydrogen peroxide.
smiles,measurement,value
"[C-]#N.[C-]#N.[C-]#N.[C-]#N.[C-]#N.[C-]#N.[C-]#N.[C-]#N.[C-]#N.[C-]#N.[C-]#N.[C-]#N.[C-]#N.[C-]#N.[C-]#N.[C-]#N.[C-]#N.[C-]#N.[Fe+2].[Fe+2].[Fe+2].[Fe+3].[Fe+3].[Fe+3].[Fe+3] [Prussian Blue, Prussian blue]",Killed/Total Samples,0/10 and 8/10 and 3/10 and 7/10* and 1/10* and 6/10* and 2/10* and 10/10
same,grow out results compared with potassium ferricyanide (Table 1),comparable results
